# “Also recorded” adds a separate entry of the source.
# Test system: Canola Variety 45H25
# Assay: Herbicide resistance of canola variety 45H25 at standard recommended application rates
# Type: in vivo, Brassica napus
# Settings: for Herbicide resistance (Description): response of variety 45H25 to the herbicide, in words; for Herbicide resistance rating (Mean): scale 0 = not tested, 1 = resistant, variety 45H25
# Description: When preparing the detailed phenotypic information that follows, plants of the new 45H25 variety were observed while growing using conventional agronomic practices. For comparative purposes canola plants of four publicly available canola lines were similarly grown in a three-replication experiment. Based on observations recorded on various morphological traits for the variety 45H25 and comparative check cultivars, variety 45H25 can be described as follow: […]
Compound,Herbicide resistance (Description),Herbicide resistance (Description) (listed as glyphosate),"Herbicide resistance rating (Mean) (2 = tolerant, 3 = susceptible)","Herbicide resistance rating (Mean) (5 = tolerant, 9 = susceptible)"
O=C(O)CNCP(=O)(O)O [Glyphosate],resistant,resistance; also recorded: resistant,1.00,–
CP(=O)(O)CCC(N)C(=O)O (centres unmarked) [Glufosinate],susceptible,–,–,9.00

# — patent US7335817B2, “Canola line 45H25” (Pioneer Hi-Bred International, Inc., priority 2005, dated 2008)
